Reference: PMC6943552, “Glucosinolates in Sisymbrium officinale (L.) Scop.: Comparative Analysis in Cultivated and Wild Plants and in Vitro Assays with T2Rs Bitter Taste Receptors” (Molecules, 2019)

Biological target: T1, T2R16 (hT2R16) (Homo sapiens, UniProt Q9NYV7)
T1 construct: gene TAS2R16; coding region with N-terminal rSST3 tag (45 N-terminal residues of rat somatostatin receptor subtype 3), pcDNA5, transient in HEK293 PEAKrapid Galpha16i/o44 cells
T1 sequence (Q9NYV7 1-291): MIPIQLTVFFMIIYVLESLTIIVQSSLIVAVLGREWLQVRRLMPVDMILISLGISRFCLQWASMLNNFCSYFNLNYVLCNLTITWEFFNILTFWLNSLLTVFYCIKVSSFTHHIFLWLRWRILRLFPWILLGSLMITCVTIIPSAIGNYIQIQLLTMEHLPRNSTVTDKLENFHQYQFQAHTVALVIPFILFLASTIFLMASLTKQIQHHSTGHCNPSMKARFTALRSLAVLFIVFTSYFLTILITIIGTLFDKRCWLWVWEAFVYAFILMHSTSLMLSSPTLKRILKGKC
Assay: FLIPR calcium imaging (Cal520-AM)
Assay type: cell-based

With `CC(C)/C(=N/OS(=O)(=O)O)S[C@@H]1O[C@H](CO)[C@@H](O)[C@H](O)[C@H]1O` [compound 3, glucoputranjivin] the EC50 was > 1000 µM.
